Measurements reported in US20200392161A1, “SHP2 PHOSPHATASE INHIBITORS AND METHODS OF USE THEREOF” (Relay Therapeutics, Inc., priority 2018, published 2020).
Structures can show the parent of a compound that is named as a salt.

Target: T1, SHP2 (Homo sapiens, UniProt Q06124)
T1 sequence (Q06124 1-593): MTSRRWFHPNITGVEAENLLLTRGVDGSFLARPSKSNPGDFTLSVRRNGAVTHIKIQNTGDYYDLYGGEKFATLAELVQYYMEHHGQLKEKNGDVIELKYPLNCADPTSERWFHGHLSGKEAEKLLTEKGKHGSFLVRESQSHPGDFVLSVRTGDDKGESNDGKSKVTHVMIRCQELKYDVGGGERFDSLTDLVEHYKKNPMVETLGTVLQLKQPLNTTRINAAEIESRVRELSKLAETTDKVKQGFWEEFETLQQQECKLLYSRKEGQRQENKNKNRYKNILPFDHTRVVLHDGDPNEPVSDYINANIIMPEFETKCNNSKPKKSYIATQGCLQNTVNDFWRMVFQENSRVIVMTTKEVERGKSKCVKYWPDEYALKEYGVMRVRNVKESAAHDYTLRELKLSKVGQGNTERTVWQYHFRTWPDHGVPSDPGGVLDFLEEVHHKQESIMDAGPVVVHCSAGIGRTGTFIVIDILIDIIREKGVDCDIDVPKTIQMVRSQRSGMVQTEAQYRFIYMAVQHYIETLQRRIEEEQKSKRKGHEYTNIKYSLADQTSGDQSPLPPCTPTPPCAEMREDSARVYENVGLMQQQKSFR
Test: SHP2 allosteric inhibition assay (DiFMUP prompt fluorescence)
Assay type: biochemical
Conditions: 0.25 nM SHP2, 0.5 μM IRS1_pY1172(dPEG8)pY1222 peptide, DiFMUP 100 μM
Source text: SHP2 Allosteric Inhibition Assay.
SHP2 is allosterically activated through binding of bis-tyrosyl-phosphorylated peptides to its Src Homology 2 (SH2) domains. The latter activation step leads to the release of the auto-inhibitory interface of SHP2, which in turn renders the SHP2 protein tyrosine phosphatase (PTP) active and available for substrate recognition and reaction catalysis. The catalytic activity of SHP2 was monitored using the surrogate substrate DiFMUP in a prompt fluorescence assay format.
The inhibitor dose response curves were analyzed using normalized IC50 regression curve fitting with control based normalization.

| Structure (SMILES) | IC50 (Table 6) [µM] | other results |
| --- | --- | --- |
| Cc1ccc(-c2nc(C)c(C(=O)N3CCC(CN)C3)s2)c(C)c1 (stereo not shown) [Compound C47] |  | IC50 (Table 3): > 1000 µM |
| NC1CCCN(C(=O)c2cnc(-c3ccc(C(F)(F)F)cc3)s2)CC1 (stereo not shown) [Compound C48] |  | IC50 (Table 3): > 1000 µM |
| NCC1CCN(C(=O)c2csc(-c3ccccc3F)n2)C1 (stereo not shown) [Compound C49] |  | IC50 (Table 3): > 1000 µM |
| CC1(N)CCN(c2ncnc3c(-c4cccc(Cl)c4Cl)csc23)CC1 [Compound D1, 1-(7-(2,3-dichlorophenyl)thieno[3,2-d]pyrimidin-4-yl)-4-methylpiperidin-4-amine formate] |  | IC50 (Table 4): 1 to 10 µM |
| CC1(CN)CCN(c2ncnc3c(-c4cccc(Cl)c4Cl)csc23)CC1 [Compound D2, (1-(7-(2,3-dichlorophenyl)thieno[3,2-d]pyrimidin-4-yl)-4-methylpiperidin-4-yl)methanamine] |  | IC50 (Table 4): 1 to 10 µM |
| CC1(N)CCN(c2cnn3c(-c4ccccc4Cl)coc23)CC1 [Compound E1, 1-(3-(2-chlorophenyl)pyrazolo[5,1-b]oxazol-7-yl)-4-methylpiperidin-4-amine formate] |  | IC50 (Table 5): 50 to 100 µM |
| CC1(CN)CCN(c2cnn3c(-c4ccccc4Cl)coc23)C1 (stereo not shown) [Compound E2, (1-(3-(2-chlorophenyl)pyrazolo[5,1-b]oxazol-7-yl)-3-methylpyrrolidin-3-yl)methanamine] |  | IC50 (Table 5): < 50 µM |
| Cc1cc2occ(-c3ccccc3Cl)n2n1 [Compound E3, 3-(2-chlorophenyl)-6-methylpyrazolo[5,1-b]oxazole] |  | IC50 (Table 5): > 100 µM |
| Clc1ccccc1-c1coc2ccnn12 [Compound E4, 3-(2-chlorophenyl)pyrazolo[5,1-b]oxazole] |  | IC50 (Table 5): > 100 µM |
| Cn1c(N2CCC(C)(CN)CC2)nc2[nH]nc(N3CCCc4ncccc43)c2c1=O [Compound F1, 6-(4-(aminomethyl)-4-methylpiperidin-1-yl)-3-(3,4-dihydro-1,5-naphthyridin-1(2H)-yl)-5-methyl-1H-pyrazolo[3,4-d]pyrimidin-4(5H)-one, hydrochloride] | < 1 |  |
| C[C@@H]1OCC2(CCN(c3nc4[nH]nc(N5CCc6ncccc65)c4c(=O)n3C)CC2)[C@@H]1N [Compound F11, 6-[(3S,4S)-4-amino-3-methyl-2-oxa-8-azaspiro[4.5]decan-8-yl]-5-methyl-3-{1H,2H,3H-pyrrolo[3,2-b]pyridin-1-yl}-1H,4H,5H-pyrazolo[3,4-d]pyrimidin-4-one formate] | 1 to 20 |  |

Second part, led by results:

| IC50 (Table 6) [µM] | Structure (SMILES) | other results |
| --- | --- | --- |
| > 20 | CC1(N)CCN(c2cc(=O)nc3[nH]nc(-c4cccc(Cl)c4F)n23)CC1 [Compound F2, 5-(4-amino-4-methylpiperidin-1-yl)-3-(3-chloro-2-fluorophenyl)-[1,2,4]triazolo[4,3-a]pyrimidin-7(1H)-one hydrochloride] |  |
| > 20 | CC1(N)CCN(c2cc(=O)n3c(-c4cccc(Cl)c4F)n[nH]c3n2)CC1 [Compound F3, 7-(4-amino-4-methylpiperidin-1-yl)-3-(3-chloro-2-fluorophenyl)-[1,2,4]triazolo[4,3-a]pyrimidin-5(1H)-one hydrochloride] |  |
| < 1 | Cn1c(N2CCC(C)(CN)CC2)nc2[nH]nc(N3CCc4ccccc43)c2c1=O [Compound F4, 6-(4-(aminomethyl)-4-methylpiperidin-1-yl)-3-(indolin-1-yl)-5-methyl-1H-pyrazolo[3,4-d]pyrimidin-4(5H)-one] |  |
| 1 to 20 | O=c1c2[nH]nc(-c3cccc(Cl)c3Cl)c2ncn1C1CCNCC1 [Compound F5, 3-(2,3-dichlorophenyl)-6-(piperidin-4-yl)-1H-pyrazolo[4,3-d]pyrimidin-7(6H)-one] |  |
| < 1 | Cn1c(N2CCC(C)(CN)CC2)nc2[nH]nc(Sc3cccc(Cl)c3Cl)c2c1=O [Compound F7, 6-(4-(aminomethyl)-4-methylpiperidin-1-yl)-3-((2,3-dichlorophenyl)thio)-5-methyl-1H-pyrazolo[3,4-d]pyrimidin-4(5H)-one hydrochloride] |  |
| < 1 | Cn1c(N2CCC(C)(CN)CC2)nc2[nH]nc(Sc3cccc(Cl)c3)c2c1=O [Compound F8, 6-(4-(aminomethyl)-4-methylpiperidin-1-yl)-3-((3-chlorophenyl)thio)-5-methyl-1H-pyrazolo[3,4-d]pyrimidin-4(5H)-one] |  |
| < 1 | COc1nc(N2CCC(C)(N)CC2)nc2[nH]nc(-c3cccc(Cl)c3Cl)c12 [Compound F9, 1-[3-(2,3-dichlorophenyl)-4-methoxy-1H-pyrazolo[3,4-d]pyrimidin-6-yl]-4-methyl-piperidin-4-amine] |  |
| < 1 | C[C@@H]1OCC2(CCN(c3nc4[nH]nc(N5CCc6ccccc6C5)c4c(=O)n3C)CC2)[C@@H]1N [Compound F12, 6-[(3S,4S)-4-amino-3-methyl-2-oxa-8-azaspiro[4.5]decan-8-yl]-5-methyl-3-(1,2,3,4-tetrahydroisoquinolin-2-yl)-1H,4H,5H-pyrazolo[3,4-d]pyrimidin-4-one] |  |
